What was measured:
Experiment in all cases: relative viability (nuclei count vs DMSO), 5 days (fraction); higher = more cells survive
Decitabine + Pictilisib = compound: Nc1ncn([C@H]2C[C@H](O)[C@@H](CO)O2)c(=O)n1 [Decitabine] + CS(=O)(=O)N1CCN(Cc2cc3nc(-c4cccc5[nH]ncc45)nc(N4CCOCC4)c3s2)CC1 [Pictilisib] (partner 1 µM)
Outline: (§1)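 Lung cancer cell lines were pin-tool dosed in 1536-well plates on the day after seeding, with either a lone drug or a fixed anchor-drug dose plus five library-drug doses (not always all listed) in √10 steps. Nuclei were counted on 4× images after 5 days. Relative viability is the ratio of treated-well to vehicle-well nuclei counts, with each value a median of duplicate plates.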

Cediranib + Linsitinib = compound: COc1cc2c(Oc3ccc4[nH]c(C)cc4c3F)ncnc2cc1OCCCN1CCCC1 [Cediranib] + C[C@]1(O)C[C@@H](c2nc(-c3ccc4ccc(-c5ccccc5)nc4c3)c3c(N)nccn32)C1 [Linsitinib] (partner 1 µM)
Outline: as §1

Cediranib + Bortezomib = compound: COc1cc2c(Oc3ccc4[nH]c(C)cc4c3F)ncnc2cc1OCCCN1CCCC1 [Cediranib] + CC(C)C[C@H](NC(=O)[C@H](Cc1ccccc1)NC(=O)c1cnccn1)B(O)O [Bortezomib] (partner 0.002 µM)
Outline: as §1

Cediranib + Pemetrexed = compound: COc1cc2c(Oc3ccc4[nH]c(C)cc4c3F)ncnc2cc1OCCCN1CCCC1 [Cediranib] + Nc1nc2[nH]cc(CCc3ccc(C(=O)N[C@@H](CCC(=O)O)C(=O)O)cc3)c2c(=O)[nH]1 [Pemetrexed] (partner 0.2 µM)
Outline: as §1

Cell Line | relative viability (Decitabine + Pictilisib; first compound 0.04 µM) | relative viability (Decitabine + Pictilisib; first compound 0.1265 µM) | relative viability (Decitabine + Pictilisib; first compound 0.4 µM) | relative viability (Decitabine + Pictilisib; first compound 1.265 µM) | relative viability (Decitabine + Pictilisib; first compound 4 µM) | relative viability (Cediranib + Linsitinib; first compound 0.04 µM) | relative viability (Cediranib + Linsitinib; first compound 0.1265 µM) | relative viability (Cediranib + Linsitinib; first compound 0.4 µM) | relative viability (Cediranib + Linsitinib; first compound 1.265 µM) | relative viability (Cediranib + Linsitinib; first compound 4 µM) | relative viability (Cediranib + Bortezomib; first compound 0.04 µM) | relative viability (Cediranib + Bortezomib; first compound 0.1265 µM) | relative viability (Cediranib + Bortezomib; first compound 0.4 µM) | relative viability (Cediranib + Bortezomib; first compound 1.265 µM) | relative viability (Cediranib + Bortezomib; first compound 4 µM) | relative viability (Cediranib + Pemetrexed; first compound 0.04 µM) | relative viability (Cediranib + Pemetrexed; first compound 0.1265 µM) | relative viability (Cediranib + Pemetrexed; first compound 0.4 µM) | relative viability (Cediranib + Pemetrexed; first compound 1.265 µM) | relative viability (Cediranib + Pemetrexed; first compound 4 µM)
NCI-H1651 | 0.481 | 0.598 | 0.624 | 0.503 | 0.434 | 0.888 | 1.11 | 0.991 | 0.95 | 1.04 | 0.972 | 0.87 | 0.915 | 0.914 | 0.894 | 0.601 | 0.619 | 0.592 | 0.497 | 0.53
NCI-H1666 | 0.458 | 0.478 | 0.387 | 0.319 | 0.372 | 0.865 | 0.903 | 0.729 | 0.885 | 0.877 | 0.9 | 0.607 | 0.852 | 0.815 | 0.836 | 0.889 | 0.962 | 0.898 | 0.912 | 0.841
NCI-H1734 | 0.442 | 0.453 | 0.443 | 0.342 | 0.312 | 0.932 | 0.847 | 0.928 | 0.776 | 1 | 0.831 | 0.814 | 0.806 | 0.837 | 1.24 | 0.472 | 0.409 | 0.412 | 0.425 | 0.425
NCI-H1755 | 0.385 | 0.411 | 0.291 | 0.365 | 0.343 | 0.997 | 1.06 | 0.967 | 0.972 | 1.03 | 0.971 | 0.925 | 0.878 | 0.991 | 0.958 | 0.432 | 0.391 | 0.422 | 0.437 | 0.449
NCI-H1792 | 0.303 | 0.243 | 0.34 | 0.235 | 0.197 | 0.61 | 0.701 | 0.535 | 0.674 | 0.574 | 1.07 | 1.14 | 0.953 | 0.955 | 0.762 | – | 1.13 | 0.567 | 0.742 | 0.796
NCI-H1915 | 0.814 | 0.662 | 0.387 | 0.295 | 0.304 | 1.09 | 1.01 | 1.07 | 1.04 | 1.16 | 0.989 | 0.914 | 0.958 | 0.949 | 0.984 | 0.655 | 0.74 | 0.448 | 0.516 | 0.446
NCI-H1975 | 0.293 | 0.254 | 0.226 | 0.238 | 0.218 | 1.1 | 1.16 | 1 | 0.955 | 0.928 | 0.423 | 0.479 | 0.326 | 0.432 | 0.345 | 0.269 | 0.314 | 0.277 | 0.301 | 0.284
NCI-H1993 | 0.866 | 0.973 | 0.788 | 0.9 | 0.725 | 0.774 | 0.751 | 0.701 | 0.648 | 0.818 | 1.07 | 1.32 | 1.08 | 1.07 | 1.05 | – | 0.581 | 0.627 | 0.49 | 0.585
NCI-H2009 | 0.773 | 0.672 | 0.351 | 0.386 | 0.245 | 1.2 | 1.18 | 1.18 | 1.19 | 1.16 | 0.934 | 0.246 | 1.04 | 0.943 | 1.12 | 1.08 | 0.914 | 0.957 | 1.04 | 0.999
NCI-H2023 | 0.244 | 0.252 | 0.174 | 0.142 | 0.143 | 0.656 | 0.641 | 0.638 | 0.588 | 0.765 | 1.04 | 0.447 | 0.897 | 0.849 | 1.02 | 0.283 | 0.274 | 0.254 | 0.233 | 0.248
NCI-H2085 | 0.454 | 0.462 | 0.408 | 0.403 | 0.404 | 1.01 | 0.941 | 0.898 | 0.872 | 0.926 | 1.1 | 1.05 | 0.956 | 0.97 | 0.954 | 0.892 | 1.06 | 0.864 | 0.812 | 0.9
NCI-H2087 | 0.762 | 0.779 | 0.519 | 0.404 | 0.336 | 0.995 | 1.03 | 0.921 | 0.843 | 0.959 | 0.849 | 0.739 | 0.775 | 0.722 | 0.697 | 0.734 | 0.678 | 0.633 | 0.587 | 0.63
NCI-H2126 | 0.517 | 0.543 | 0.463 | 0.39 | 0.438 | 0.769 | 0.708 | 0.683 | 0.592 | 0.722 | 1.14 | 1.2 | 1.09 | 0.963 | 1.11 | 0.701 | 0.595 | 0.627 | 0.725 | 0.748
NCI-H2228 | 0.355 | 0.441 | 0.179 | 0.287 | 0.232 | 0.873 | 0.955 | 0.8 | 0.536 | 1.03 | 1.16 | 1.09 | 0.991 | 1.35 | 1.14 | 0.351 | 0.346 | 0.359 | 0.325 | 0.325
NCI-H2347 | 0.59 | 0.599 | 0.63 | 0.495 | 0.554 | 0.979 | 0.86 | 0.919 | 1 | 0.903 | 1.09 | 0.819 | 0.93 | 1.02 | 0.96 | 0.397 | 0.353 | 0.425 | 0.454 | 0.44
NCI-H2405 | 0.457 | 0.453 | 0.562 | 0.406 | 0.298 | 1 | 1.25 | 0.838 | 1.06 | 0.836 | 1.05 | 0.475 | 0.982 | 0.894 | 0.983 | 1.02 | 1.01 | 0.997 | 1.1 | 1.16

From the supplement of paper PMC10307832
